According to patent US8906897B2, “Antimicrobial agents based on hemin derivatives” (Obschestvo S Ogranichennoi Otvetstvennostiyu …, priority 2009, dated 2014):

Legend:
Type in all cases: cell-based
[1] = system: Staphylococcus aureus No. 100 KC; experiment: Specific activity against resistant bacterial strains; details: St. aureus 100 KC; 24 h, 36° C.
Description: (§1) The tested agents were water-soluble hemin derivatives (compounds VII and XVIII) or DMSO-soluble derivatives (compounds VIII, XV, and XIV). Vancomycin was the reference compound. Each compound was tested in three replicas.
(§2) Sterile single-use flat-bottomed 96-well plates, Petri dishes, pipettes, tips, and test tubes (Pan-Eco, Moscow) were used in the study.
(§3) The nutritional media used were as follows. A working Mueller Hinton broth was prepared from dry media (Mueller Hinton broth, Acumedia, Baltimore) and sterilized by autoclaving at 121° C. for 15 min.
(§4) Staphylococcus aureus was cultured on the Tripticase Soy Agar (BBL) commercially available dry medium. Enterococcus faecalis was cultured on the Columbia Agar Base (BBL) commercially available dry medium. These media were sterilized by autoclaving at 121° C. for 15 min.
(§5) Bacterial inoculum was fixed and equal to 5×10^5 CFU/mL.
(§6) For water-soluble compounds, wells from 2nd through 8th were added with the solvent (water) in an amount of 15 μL per well, then the 1st well was added with 30 μL of the stock solution of the tested compound in water with a concentration of 1×10^3M, and the concentration was adjusted to 0.007×10^3 M by serial twofold dilutions. A 10-μL portion was taken from every well, and 190 μL of the bacterial culture (10^5 CFU) was added per well.
(§7) For DMSO-soluble compounds, wells from 2nd through 8th were added with the solvent (DMSO) in an amount of 10 μL per well, then the 1st well was added with 20 μL of the stock solution of the tested compound in […] with a concentration of 5×10^3M, and the concentration was adjusted to 0.039×10^3 M by serial twofold dilutions. A 2-μL portion was taken from each well, and 198 μL of the bacterial culture (10^5 CFU) was added per well.
(§8) The control comprised wells free of tested compounds (culture growth control). In addition, purity control of nutritional media and solvents was used. Plates were incubated in a thermostat at 36° C. for 24 hours.
(§9) Culture growth was evaluated visually by comparison of how microorganisms grew in the presence of tested compounds and in the absence of them. MSC (the minimal suppressing concentration) was set equal to the last dilution of a tested agent which suppressed bacterial culture growth.

[2] = system: Enterococcus faecalis No. 559; experiment: as above; details: Ent. faecalis 559; 24 h, 36° C.
Description: as §1, §2, §3, §4, §5, §6, §7, §8, §9

[3] = system: Staphylococcus aureus No. 25923 ATCC; experiment: as above; details: St. aureus 25923; 24 h, 36° C.
Description: as §1, §2, §3, §4, §5, §6, §7, §8, §9

[4] = system: Staphylococcus epidermidis No. 533; experiment: as above; details: St. epiderm 533; 24 h, 36° C.
Description: as §1, §2, §3, §4, §5, §6, §7, §8, §9

[5] = system: Enterococcus faecium No. 569; experiment: as above; details: Ent. faecium 569; 24 h, 36° C.
Cryptococcus humicolus = experiment: Antifungal activity against cryptococcosis causative agent (MSC)
Candida albicans No. 927 = experiment: Antifungal activity, culture growth with pH indicator; parameters: key to Test culture growth at various dilutions of the agent: (−) No growth; the indicator is blue; (±) Weak growth; the indicator is yellow, but the precipitate of grown cells looks as a diffuse spot; (+) Strong growth; the indicator is yellow, and the cell precipitate looks as a compact spot
Description: The subjects of action were Cryptococcus neoformans No. 3465 museum strain cells and Candida albicans No. 927 museum strain cells grown for one day on a glucose-peptone-yeast medium at 32° C. The reference compounds were the following antimycotics: pimafucin, amphotericin, and fluconazole.
Experiments were carried out on round-bottomed 96-well plates (Lenmedpolimer) in two replicas. To the first column (0), added was 10 μL of the stock solution of a water-soluble agent with concentrations of 10^−2 to 10^−3 mol/L; to the second column, added was also the same 10 μL plus 10 μL of the solvent corresponding to the given compound, suspended, 10 μL was transferred to the next well, and so on to the 8th well of the row. Stock solutions of water-insoluble compounds of general formula (I) (compounds V, VIII, XII, XIII, XIV, and hemin) were prepared in DMSO and were diluted with DMSO and the medium. DMSO concentrations in the reaction mixture in a well were ≦5%.
Then, to every well added was 190 μL of a Cr. neoformans cell culture suspension in a synthetic nutritional medium (so that the final cell concentration was approximately 10^3 CFU/mL), this medium containing Bromocresol Blue as a pH-indicator (pH: 5.5; indicator color: blue). As pH reduced to 4.5, the indicator in the culture changed its color to yellow, thereby indicating fungal cell growth. The synthetic medium comprised the following components: salts, amino acids, microelements, vitamins, an antibiotic, and glucose (30 components altogether) [Yarrow, D., “Methods for the Isolation, Maintenance and Identification of Yeasts,” in: The Yeasts. A Taxonomic Study, Ed. by Kurtsman, C. P, and Fell, M., Elsevier, 1998, pp. 77-100]. After being inoculated with a Cr. neoformans cell suspension, the plate was incubated at 32° C. for 1 h with stirring, then transferred to a stationary thermostat and incubated for two and five days at 27° C. After being inoculated with a C. albicans cell suspension, the plates were incubated for 1 h at 32° C. with stirring, then transferred to a stationary thermostat and incubated for one and four days at 27° C.

[6] = system: Enterococcus faecalis BKM B-871; experiment: Antibacterial activity (MIC/MBC), serial dilutions in liquid MH medium
Description: (§10) The antibacterial activity of compounds was determined against Bacillus subtilis BKM B-501, Staphylococcus aureus 209P, Enterococcus faecalis BKM B-871, and Micrococcus luteus BKM Ac-2230 strains (acquired from the All-Russia Collection of Microorganisms at the Institute for Biochemistry and Physiology of Microorganisms, Russian Academy of Sciences). The main parameters characterizing the antibacterial activity are the minimal inhibitory concentration (MIC) and minimal bactericidal concentration (MBC). […] MBC is the least concentration that causes the death of all cells.
(§11) MIC was quantified by inhibiting culture growth in a liquid medium with serial dilutions of compounds using a modified procedure [Amsterdam, D., “Susceptibility Testing of Antimicrobials in Liquid Media,” in Antibiotics in Laboratory Medicine, Ed. by Lorian, V., 4th ed., Baltimore: Williams and Wilkins, 1996, pp. 52-111].
(§12) Bacteria were cultured and tests were carried out on an MH liquid medium (Mueller-Hinton medium: a dry extract of beef broth, 4 g/L; starch, 1.5 g/L; casein hydrolyzate, 17.5 g/L; Sigma-Fluka Catalog No. 70192) at 37° C., 100% humidity, and under stirring. Cultures (4th through 7th receeding post-thawing) in the exponential growth phase were used for tests.
(§13) Therefore, a correction for absorption was applied in estimating the optical density of bacterial suspensions for each compound with account for its concentration in the well.
(§14) The protocol for experimental antibacterial activity determination for tested compounds was as follows. A cryovial with the test strain culture (Bacillus subtilis BKIVI B-501, Staphylococcus aureus 209P, Enterococcus faecalis BKM B-871, or Micrococcus luteus BKIVI Ac-2230) in a medium with 7% DMSO stored in liquid nitrogen, was rapidly defrosted, and 1.5 mL of the fresh MH medium was inoculated with 100 μL of the cell suspension. Cells were grown for one day at 37° C. and stirred on an orbital shaker at 150 rpm. The morphologic features of the strain and the absence of contamination with foreign bacteria were verified by: (a) inoculation on an agarized (15 g/L agar) MH medium and observation of the shape and color of the grown colonies and (b) examination of characteristic morphologic features under a microscope (Mikmed-2, LOMO, Russia) equipped with a 40× objective lens. Further bacteria were cultured in 1 mL of the liquid MH medium at 37° C. under stirring. The cells were reseeded every day. Cell cultures were used in tests starting with 3rd reseeding and ending with 6th one.
(§15) For testing, 5 μL of a bacterial suspension in the stationary growth phase was transferred to 1 mL of a sterile MH medium and incubated until the exponential growth phase was attained (3 to 5 h, 37° C., stirring at 150 rpm). To estimate the microorganisms concentration, the optical density (A) of the resulting bacterial culture was measured at a wavelength of 595 nm. The value of A=0.2 measured from a […] portion of the cell suspension in a 96-well plate, with a correction for the medium absorption applied, was set to correspond to 4×10^8 cells/mL for both strains used. Taking into account the cell concentration measurements, the suspension was diluted with the MH medium to a concentration of from 5×10^4 to 1×10^5 cells/mL and transferred to a sterile 96-well plate in an amount of 100 μL, per well. Then, the cells were added with tested compounds and twofold serial dilutions of these compounds in plate's wells were made.
(§16) The controls used were: 100 μL of an additive-free bacterial culture (four wells); a bacterial culture added with 1% DMSO or water in the same volume as in the wells with the maximal concentration of the tested compounds (four wells); and 100 μL of the sterile MH medium without bacteria and without tested compounds for control of occasional contamination in the plate (four wells).

[7] = system: Staphylococcus aureus 209P; experiment: as above
Description: as §10, §11, §12, §13, §14, §15, §16

[8] = system: Micrococcus luteus BKM Ac-2230; experiment: as above
Description: as §10, §11, §12, §13, §14, §15, §16

[9] = system: Bacillus subtilis BKM B-501; experiment: as above
Description: as §10, §11, §12, §13, §14, §15, §16

With C=CC1=C(C)c2cc3[n-]c(cc4nc(cc5[n-]c(cc1n2)c(C)c5CCC(=O)N[C@@H](CCCNC(=N)N)C(=O)N[C@@H](CCCNC(=N)N)C(=O)OC)C(CCC(=O)N[C@@H](CCCNC(=N)N)C(=O)N[C@@H](CCCNC(=N)N)C(=O)OC)=C4C)c(C)c3C=C.[Cl-].[Fe+3] [Compound XXI, 6,7-bis[(N^α-L-Arginyl Methyl Ester)-L-Arginyl]-Protohemin IX] the “MICs for hemin derivatives against Gr+ strains” value (“MICs for hemin derivatives” below) [1] was 50 µM, the “MICs for hemin derivatives” value [2] was 50 µM and the “MICs for hemin derivatives” value [3] was 50 µM. The “MICs for hemin derivatives” value [4] was 50 µM and the “MICs for hemin derivatives” value [5] was >50 µM.
With “Protohemin IX 6(7)-Mono(-Val-Gly-Ala-D-Leu-Ala-D-Val-Val-D-Val-Trp-D-Leu-X-D-Leu-Trp-D-Leu-Trp-NH—CH2CH2OH)amide [Compound XII]” the MSC (Cryptococcus humicolus) was 12.5 µM, the “Test culture growth at various dilutions of the agent” value (“Test culture growth” below) (Candida albicans No. 927; dilution 0: 1 × 10^−4 M) was “±” and the “Test culture growth” value (Candida albicans No. 927; dilution : 2 of 1 × 10^−4 M) was “±”. For the same molecule, the “Test culture growth” value (Candida albicans No. 927; dilution : 4 of 1 × 10^−4 M) was “±”, the “Test culture growth” value (Candida albicans No. 927; dilution : 8 of 1 × 10^−4 M) was “+” and the “Test culture growth” value (Candida albicans No. 927; dilution : 16 of 1 × 10^−4 M) was “+”. For the same molecule, the “Test culture growth” value (Candida albicans No. 927; dilution : 32 of 1 × 10^−4 M) was “+”, the “Test culture growth” value (Candida albicans No. 927; dilution : 64 of 1 × 10^−4 M) was “+” and the MBC [6] was >50^3 μM. For the same molecule, the MIC ([6]; 20 h, MH medium) was 50 µM, the MBC [7] was >50^2 μM and the MIC ([7]; 20 h, MH medium) was 50 µM. For the same molecule, the MBC [8] was >6.3^3 μM, the MIC ([8]; 20 h, MH medium) was 1.6 µM and the MBC [9] was 38 ± 13 µM. The MIC ([9]; 20 h, MH medium) was 38 ± 13 µM.
